The values that follow come from US5168102A, “Endocrine manipulation to improve body composition of poultry” (priority 1990, dated 1992).

The subject of one data set is receptor. The conditions noted are these: cited from earlier work.
Data set [1] is described as follows: Example 1: body composition (proximate analysis of carcass). In kind it is in vivo, broiler cockerels (Ross X Arbor Acre strain). The conditions noted are these: for Body composition: Ash / Body composition: Fat / Body composition: Protein / Body composition: Water: N = 8. The text has this: (§1) The purpose of this study was to determine the effect manipulating blood levels of thyroid hormones and/or growth hormone on growth performance and body composition of broiler chickens. […] Purified natural chicken growth hormone (ncGH) was obtained from the Research and Education Center, Harbor-UCLA Medical Center, Torrance, Calif. […] The premix (200 g) was then used to prepare 50 kg batches of each experimental diet according to the formula for broiler-finisher ration described in Table 1. The diet containing 0.5% PTU was prepared by mixing 250 g of PTU into 49.75 kg of the basal ration (Table 1).
(§2) Broiler cockerels (Ross X Arbor Acre strain) were raised to 3 weeks-of-age in a battery-brooder and then transferred to wire grow-out cages (4 birds/pen) held in two controlled-environment rooms (10 pens/room). Beginning at 3 weeks of age, eight birds (2 pens of 4 birds) were randomly assigned to each of 10 treatments. The chickens were provided the experimental diets and water ad libitum. […] For injection, the ncGH was reconstituted in sterile 0.025M sodium bicarbonate buffer (pH 9.8). The 10 treatments were administered for 21 days (i.e., from 3 to 6 weeks of age).
(§3) Measurement of body weight and feed consumption at weekly intervals allowed calculation of the average daily gain (ADG, g/bird/day), average daily feed consumption (ADFC, g/bird/day) and the feed-to-gain ratio (FIG, kg feed/kg gain) over the 21 day experimental period. Blood samples were taken each week (4, 5, and 6 weeks) just before (pre-injection) and 4 hours post-injection of ncGH. […] At the conclusion of the study, birds were killed and the carcasses frozen for proximate analysis. The frozen carcasses were ground in a meat grinder and aliquots of each ground carcass taken for determination of moisture, protein, fat and ash by established analytical procedures (Official Method of Analysis, Edition 13, W. Horwitz ed., Association of Official Analytical Chemist, Washington, D.C., 1980). Body composition data are presented as a percent of live weight at 6 weeks-of-age. Least squares regression analysis was used to test for significant differences (P<0.05) due treatment.

For data set [2] the following is noted: i.v., 21 days, cited from earlier work.
Data set [3] can be described thus: Example 1: growth and feed efficiency of broiler cockerels fed thyroid-active substances with or without daily ncGH injection. Type of data set: in vivo, broiler cockerels (Ross X Arbor Acre strain). The conditions noted are these: for BW (body weight): mean ±SEM; for ADFC (average daily feed consumption) / ADG (average daily weight gain) / FTG (feed-to-gain ratio): 21 days.
Description: as §1, §2, §3

The conditions of data set [4]: at the doses tested. An excerpt: Referring now to broiler chickens as a benchmark for the beneficial effects of this invention, it must be noted that these chickens grow from a weight of 30 to 50 grams at hatching to about 1.5-3 or even as much as 5 kilograms of body weight at market age. Of this market weight, 15-20 wt.-% is protein, 2-3 wt.-% is inorganic (showing up as ash in proximate analysis of body composition), and more than 10 wt.-% (e.g. 10-20 wt.-%) is fat, which means that the protein:fat ratio (by weight) is likely to be at or below 1.5:1 and certainly well below 2:1.

Data set [5] in a line: Example 1: plasma hormone concentrations (radioimmunoassays). The conditions noted are these: for average plasma T3 level: Group 1; for I/G Molar Ratio / plasma Glucagon (G) / plasma Insulin (I): N = 24.
Description: as §1, §2, §3

The conditions of data set [6]: hypothyroid state; cited from earlier work.
For data set [7] the following is noted: supplemented diets; cited from earlier work.
Data set [8] in a line: Example 2: growth and feed efficiency, dietary T3 and ncGH injection. In kind it is in vivo, broiler cockerels (Ross X Arbor Acre). The protocol:
(§4) Forty-eight 3-week-old broiler cockerels (Ross X Arbor Acre) were randomly divided into four treatment groups that contained three pens of four birds. The birds were housed in a controlled-environment room under a 20 hour light/4 hour dark cycle with feed and water provided ad libitum.
(§5) The preparation of ncGH used in this study was from the same lot used in Example 1.
(§6) Body weights and feed consumption was determined at weekly intervals although the ADG, ADFC and FTG ratio was determined over the 21 day period. […] At the conclusion of the study (6 weeks-of-age), birds were killed and the abdominal fat removed and weighed. The liver and abdominal fat were returned to the carcass which was frozen for proximate analysis as described in […]

A short description of data set [9]: Example 2: final body weight, liver, abdominal fat and body composition. Type of data set: in vivo, broiler cockerels (Ross X Arbor Acre). Here is the method: as §4, §5, §6
The nature of data set [10]: Example 2: plasma hormone concentrations. Type of data set: in vivo, broiler cockerels (Ross X Arbor Acre). The settings on record: 4 hours post-injection of 100 μg ncGH/kg BW at 4, 5 and 6 weeks. The protocol: as §4, §5, §6
The mark [11] stands for this setting: Group 1, dietary, 6 weeks-of-age.
Where [12] appears, read: 1 ppm T3, 1 ppm T4, 5 ppm TRH or 0.5% PTU in feed, 3 to 6 weeks of age, Group 1.
The mark [13] stands for this setting: Group 2, with daily ncGH injection.
Setting [14] is: 1 ppm T3 and/or ncGH 100 μg/kg/day, 21 days.

Take `O=C(O)Cc1cc(I)c(Oc2cc(I)c(O)c(I)c2)c(I)c1` [Tetrac]: the “metabolic activity of thyroid hormones” value in the data set on receptor was “most active compounds of formula I”.
Turning to `NC(=O)[C@@H]1CCCN1C(=O)[C@H](Cc1c[nH]cn1)NC(=O)[C@@H]1CCC(=O)N1` [TRH, L-pyroglutamyl-L-histidyl-L-prolinamide], in data set [1] (setting [11]), the “Body composition: Ash” value is reported as 2.34 ± .06 % BW, the “Body composition: Fat” value is on record as 13.6 ± .88 % BW, the “Body composition: Protein” value is recorded as 18.1 ± .21 % BW and the “Body composition: Water” value is 65.5 ± .73 % BW. In data set [1] (vs CF group), the “body fat content, increase” value amounted to 12%. Moreover, the “plasma GH levels” value in data set [2] was “elevated plasma GH levels”. Moreover, the “growth rate and feed efficiency” value in data set [2] (TRH 1 or 10 μg/kg/day, GRF 10 μg/kg/day, alone or in combination) is “failed to stimulate growth rate or improve feed efficiency”. For the same molecule, in data set [3] (setting [12]), the “BW (body weight)” value is listed as 1.85 ± .08 kg. For the same molecule, in [3] (Group 1, dietary), the “ADFC (average daily feed consumption)” value was found to be 125.2 ± 5.5 g/bird/day, the “ADG (average daily weight gain)” value was 56.5 ± 0.2 g/bird/day and the “FTG (feed-to-gain ratio)” value is 2.21 ± 0.1 kg feed/kg gain. Further, in data set [3] (vs CF group, not significant), the “ADFC rate, increase” value worked out at 11%; the “ADG, increase” value is on record as 9%; the “body weight (BW), increase” value is recorded as 6%. Also, in [4], the “effect on protein:fat ratio” value is reported as “seemed to decrease the protein:fat ratio”. For the same molecule, the “average plasma T3 level” value in [5] stood at 3 ng/mL. Further, in [5] (Group 1, dietary), the “I/G Molar Ratio” value is 1.68, the “plasma Glucagon (G)” value is 295 pg/mL and the “plasma Insulin (I)” value was determined as 814 pg/mL.
As for `CCCc1cc(=O)[nH]c(=S)[nH]1` [PTU, 6-N-propyl-2-thiouracil], in [1] (setting [11]), the “Body composition: Ash” value was 2.17 ± .06 % BW, the “Body composition: Fat” value is 18.2 ± .80 % BW, the “Body composition: Protein” value is 17.2 ± .20 % BW and the “Body composition: Water” value is 61.9 ± .73 % BW. In addition, in data set [1] (vs CF group), the “body fat content, increase” value was found to be 50%; the “effect on body protein, water and ash” value was “at the expense of body ash, protein and water”. Moreover, in [3] (setting [12]), the “BW (body weight)” value is 1.42 ± .05 kg. In data set [3] (Group 1, dietary), the “effect on growth rate and feed efficiency” value is “depressed growth rate and reduced feed conversion”; the “ADFC (average daily feed consumption)” value stood at 92.3 ± 7.9 g/bird/day; the “ADG (average daily weight gain)” value is recorded as 39.2 ± 4.0 g/bird/day; the “FTG (feed-to-gain ratio)” value was 2.36 ± .04 kg feed/kg gain. The “final body weight, reduction” value in data set [3] (vs birds fed CF or thyroid hormones (P<0.05)) came to 18%. Also, the “effect on protein:fat ratio” value in [4] is “seemed to decrease the protein:fat ratio”. For the same molecule, in data set [5], the “average plasma T3 level” value came to 1.5 ng/mL. Also, in data set [5] (Group 1, dietary), the “I/G Molar Ratio” value is 6.35, the “plasma Glucagon (G)” value came to 225 pg/mL and the “plasma Insulin (I)” value came to 2349 pg/mL. For the same molecule, the “average plasma T3 level, reduction” value in data set [5] (vs CF birds (P<0.05)) is on record as 53%. For the same molecule, in data set [5] (vs CF group (P<0.05)), the “plasma I/G molar ratio, fold greater” value was 2.9 times. In addition, the “plasma GH level, fold higher” value in [5] (vs CF treatment) is listed as 1.9 times. Besides, in data set [5] (vs average of CF and TRH treatments (P<0.05)), the “plasma T4 level, reduction” value was 76%. Also, in data set [6], the body fat entry is reported as “increased accumulation of body fat” and the plasma insulin levels entry is “elevated plasma insulin levels”.
In the case of `O=C(O)Cc1cc(I)c(Oc2ccc(O)c(I)c2)c(I)c1` [Triac], the “metabolic activity of thyroid hormones” value in the data set with receptor is listed as “most active compounds of formula I”.
Turning to `N[C@@H](Cc1cc(I)c(Oc2cc(I)c(O)c(I)c2)c(I)c1)C(=O)O` [T4, 3-[4-(4-hydroxy-3,5-diiodophenoxy)-3,5-diiodophenyl]-L-alanine], in data set [1] (setting [11]), the “Body composition: Ash” value is reported as 2.35 ± .03 % BW, the “Body composition: Fat” value is listed as 12.9 ± .41 % BW, the “Body composition: Protein” value is reported as 18.2 ± .31 % BW and the “Body composition: Water” value was 65.8 ± .29 % BW. Moreover, in data set [3] (setting [12]), the “BW (body weight)” value is recorded as 1.76 ± .04 kg. Besides, in [3] (Group 1, dietary), the “ADFC (average daily feed consumption)” value stood at 108.4 ± 3.6 g/bird/day and the “ADG (average daily weight gain)” value is listed as 51.9 ± 3.3 g/bird/day. Also, the “depressed growth rate in dwarf strains” value in data set [7] is “restored to normal”. For the same molecule, the “average plasma T3 level” value in data set [5] was 3 ng/mL. For the same molecule, in data set [5] (Group 1, dietary), the “plasma Glucagon (G)” value was 318 pg/mL and the “plasma Insulin (I)” value was determined as 776 pg/mL. In addition, the “metabolic activity of thyroid hormones” value with receptor was “without significant metabolic activity”.

B1: GH: Purified natural chicken growth hormone (ncGH) (protein, UniProt P08998 26-216, looked up)
Somatotropin: TFPAMPLSNLFANAVLRAQHLHLLAAETYKEFERTYIPEDQRYTNKNSQAAFCYSETIPAPTGKDDAQQKSDMELLRFSLVLIQSWLTPVQYLSKVFTNNLVFGTSDRVFEKLKDLEEGIQALMRELEDRSPRGPQLLRPTYDKFDIHLRNEDALLKNYGLLSCFKKDLHKVETYLKVMKCRRFGESNCTI
Regarding B1, in data set [1] (setting [13]), the “Body composition: Ash” value is reported as 2.20 ± .04 % BW, the “Body composition: Fat” value is 14.5 ± .52 % BW, the “Body composition: Protein” value is on record as 18.1 ± .15 % BW and the “Body composition: Water” value is given as 64.7 ± .51 % BW. Moreover, in data set [8] (setting [14]), the ADFC is listed as 115.4 ± 3.5 g/bird/day and the FTG is given as 2.18 ± .05 kg feed/kg gain. In data set [8] (1 ppm T3 in feed and/or ncGH 100 μg/kg/day i.m., 3 to 6 weeks, mean ±SEM of 3 pens), this molecule displayed an ADG of 53.0 ± 2.8 g/bird/day. For the same molecule, the “effect on ADG, ADFC and FTG ratio” value in data set [8] (21 days) is listed as “not affected”. Moreover, in data set [3] (setting [13]), the “ADFC (average daily feed consumption)” value was determined as 115.8 ± 1.8 g/bird/day, the “ADG (average daily weight gain)” value turned out to be 57.0 ± 0.4 g/bird/day and the “FTG (feed-to-gain ratio)” value was 2.03 ± .02 kg feed/kg gain. Besides, the “BW (body weight)” value in data set [3] (Group 2: daily i.m. 100 ug ncGH/kg with CF, 1 ppm T3, 1 ppm T4 or 5 ppm TRH in feed, 3 to 6 weeks) is reported as 1.83 ± .04 kg. The “feed efficiency, improvement” value in data set [3] (vs FTG ratio of CF+BI group (P<0.05)) is 9%. Besides, the “effect on protein:fat ratio” value in [4] is listed as “seemed to decrease the protein:fat ratio”. The “Body Weight (BW), final” value in data set [9] (1 ppm T3 and/or ncGH 100 μg/kg/day, 6 weeks-of-age, N = 12) is given as 1.88 ± .051 kg. Moreover, the “effect on final body weight, relative liver weight, abdominal fat” value in data set [9] (6 weeks-of-age) was “did not affect growth performance, final body weight, relative liver weight or abdominal fat content”. In [9] (N = 12), the “Abdominal Fat, relative weight” value is listed as 2.56 ± .178 % BW; the “Body composition: Ash” value is 2.23 ± .058 % BW; the “Body composition: Fat” value was 15.9 ± .32 % BW; the “Body composition: Protein” value is recorded as 17.0 ± .17 % BW. In data set [9] (N = 12), the “Body composition: Water” value was 63.7 ± .33 % BW and the “Liver, relative weight” value was 2.74 ± .102 % BW. The “average plasma GH concentration” value in data set [5] (4 hours post-injection of 100 μg ncGH/kg BW, Group 2) turned out to be 62 ng/mL. Further, the “average plasma GH concentration, fold over pre-injection” value in [5] (4 hours post-injection of 100 μg ncGH/kg BW, Group 2 (P<0.05)) is on record as 3 times. Besides, in data set [5] (setting [13]), the “I/G Molar Ratio” value is listed as 2.28, the “plasma Glucagon (G)” value is 298 pg/mL and the “plasma Insulin (I)” value amounted to 1107 pg/mL. The “average plasma GH concentration, fold over pre-injection” value in data set [10] came to 4 times.
